Test system: 475296-252-R-J1-PDC spheroid viability
Experiment: Anticancer human tumor 475296-252-R-J1-PDC patient-derived rectal carcinoma cell line growth inhibition [PI3K]
Details: spheroids with HUVEC and MSC; for viability, T/C: stronger effect = lower value; active = viability on the fitted dose curve at most 10% of control; inactive = the rest
How it was run: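 We assembled tumor spheroids that included a stromal compartment of HUVEC and MSCs, then exposed them to targeted agents alone and together with PI3K pathway inhibitors. Concentration series descended by half-log from clinically achievable Cmax levels. Viability served as the endpoint.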

[1] = curve of first compound, second compound 0.0316 µM
[2] = curve of first compound, second compound 0.1 µM
[3] = curve of first compound, second compound 0.316 µM
[4] = curve of first compound, second compound 1 µM
[5] = second compound 0.0316 µM, first compound 0.0316 µM
[6] = second compound 0.0316 µM, first compound 0.1 µM
[7] = second compound 0.0316 µM, first compound 0.316 µM
[8] = second compound 0.0316 µM, first compound 1 µM
[9] = second compound 0.0316 µM, first compound 3.16 µM
[10] = second compound 0.0316 µM, first compound 10 µM
[11] = second compound 0.1 µM, first compound 0.0316 µM
[12] = second compound 0.1 µM, first compound 0.1 µM
[13] = second compound 0.1 µM, first compound 0.316 µM
[14] = second compound 0.1 µM, first compound 1 µM
[15] = second compound 0.1 µM, first compound 3.16 µM
[16] = second compound 0.1 µM, first compound 10 µM
[17] = second compound 0.316 µM, first compound 0.0316 µM
[18] = second compound 0.316 µM, first compound 0.1 µM
[19] = second compound 0.316 µM, first compound 0.316 µM
[20] = second compound 0.316 µM, first compound 1 µM
[21] = second compound 0.316 µM, first compound 3.16 µM
[22] = second compound 0.316 µM, first compound 10 µM
[23] = second compound 1 µM, first compound 0.0316 µM
[24] = second compound 1 µM, first compound 0.1 µM
[25] = second compound 1 µM, first compound 0.316 µM
[26] = second compound 1 µM, first compound 1 µM
[27] = second compound 1 µM, first compound 3.16 µM
[28] = second compound 1 µM, first compound 10 µM
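Also: spheroids exposed to agents for seven days before readout.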

CC(Cn1ccc(-c2ccc(C#N)c(Cl)c2)n1)NC(=O)c1cc(C(C)O)[nH]n1 (stereo unspecified) + COc1c(OCCCN2CCOCC2)ccc2c3n(c(=NC(=O)c4cnc(N)nc4)nc12)CCN3
inactive: viability, T/C (second compound 0.00316 µM, first compound 0.0316 µM) 106% | viability, T/C (second compound 0.00316 µM, first compound 0.1 µM) 99.3% | viability, T/C (second compound 0.00316 µM, first compound 0.316 µM) 103% | viability, T/C (second compound 0.00316 µM, first compound 1 µM) 91.7% | viability, T/C (second compound 0.00316 µM, first compound 3.16 µM) 107% | viability, T/C (second compound 0.00316 µM, first compound 10 µM) 94.7% | viability, T/C (second compound 0.01 µM, first compound 0.0316 µM) 102% | viability, T/C (second compound 0.01 µM, first compound 0.1 µM) 101% | viability, T/C (second compound 0.01 µM, first compound 0.316 µM) 111% | viability, T/C (second compound 0.01 µM, first compound 1 µM) 95.8% | viability, T/C (second compound 0.01 µM, first compound 3.16 µM) 102% | viability, T/C (second compound 0.01 µM, first compound 10 µM) 87.7% | viability, T/C [5] 97% | viability, T/C [6] 87.6% | viability, T/C [7] 89.7% | viability, T/C [8] 81.2% | viability, T/C [9] 90.6% | viability, T/C [10] 88.2% | viability, T/C [11] 84.6% | viability, T/C [12] 88.7% | viability, T/C [13] 77.8% | viability, T/C [14] 95.3% | viability, T/C [15] 91.6% | viability, T/C [16] 83% | viability, T/C [17] 73.8% | viability, T/C [18] 74% | viability, T/C [19] 73.4% | viability, T/C [20] 71.7% | viability, T/C [21] 79.1% | viability, T/C [22] 67.3% | viability, T/C [23] 65.2% | viability, T/C [24] 68.7% | viability, T/C [25] 75.8% | viability, T/C [26] 62.2% | viability, T/C [27] 71% | viability, T/C [28] 64%
> 10 µM: IC50 (curve of first compound, second compound 0.00316 µM) | IC50 (curve of first compound, second compound 0.01 µM) | IC50 [1] | IC50 [2] | IC50 [3] | IC50 [4]

Cn1ncc(Cl)c1-c1cc(C(=O)NC(CN)Cc2cccc(F)c2)sc1Cl (stereo unspecified)
> 10 µM: IC50 (curve of compound)
inactive: viability, T/C (compound 0.0316 µM) 85.6% [middle of 4 runs] | viability, T/C (compound 0.1 µM) 88.6% [middle of 4 runs] | viability, T/C (compound 0.316 µM) 68% [middle of 4 runs] | viability, T/C (compound 1 µM) 65.5% [middle of 4 runs] | viability, T/C (compound 3.16 µM) 75.9% [middle of 4 runs] | viability, T/C (compound 10 µM) 70.7% [middle of 4 runs]

C#Cc1c(F)ccc2cc(O)cc(-c3ncc4c(N5CC6CCC(C5)N6)nc(OCC56CCCN5CC(F)C6)nc4c3F)c12 (stereo unspecified) + Cc1nc(NC(=O)N2CCCC2C(N)=O)sc1-c1ccnc(C(C)(C)C(F)(F)F)c1
0.267 µM: IC50 (curve of first compound, second compound 10 µM)
> 10 µM: IC50 [1] | IC50 [2]
8.41 µM: IC50 [3]
4.42 µM: IC50 [4]
inactive: viability, T/C [5] 88.4% | viability, T/C [6] 84.1% | viability, T/C [7] 88.5% | viability, T/C [8] 74.2% | viability, T/C [9] 67.9% | viability, T/C [10] 66% | viability, T/C [11] 87.1% | viability, T/C [12] 78.9% | viability, T/C [13] 88.1% | viability, T/C [14] 64.6% | viability, T/C [15] 66.9% | viability, T/C [16] 59% | viability, T/C [17] 80.2% | viability, T/C [18] 84.7% | viability, T/C [19] 73.6% | viability, T/C [20] 71.7% | viability, T/C [21] 61.1% | viability, T/C [22] 48% | viability, T/C [23] 78.4% | viability, T/C [24] 82.8% | viability, T/C [25] 72% | viability, T/C [26] 65.5% | viability, T/C [27] 60.3% | viability, T/C [28] 32.7% | viability, T/C (second compound 3.16 µM, first compound 0.0316 µM) 89.1% | viability, T/C (second compound 3.16 µM, first compound 0.1 µM) 75.3% | viability, T/C (second compound 3.16 µM, first compound 0.316 µM) 65.1% | viability, T/C (second compound 3.16 µM, first compound 1 µM) 44.8% | viability, T/C (second compound 3.16 µM, first compound 3.16 µM) 21.7% | viability, T/C (second compound 10 µM, first compound 0.0316 µM) 73.4% | viability, T/C (second compound 10 µM, first compound 0.1 µM) 70.2% | viability, T/C (second compound 10 µM, first compound 0.316 µM) 46.6%
active: viability, T/C (second compound 3.16 µM, first compound 10 µM) 10.4% | viability, T/C (second compound 10 µM, first compound 1 µM) 9.2% | viability, T/C (second compound 10 µM, first compound 3.16 µM) 5.28% | viability, T/C (second compound 10 µM, first compound 10 µM) 3.54%
0.689 µM: IC50 (curve of first compound, second compound 3.16 µM)

Reference: PubChem BioAssay AID1963980 (Molecular Pharmacology Branch, DTP, NCI, 2024)
